Reference: patent US12478601B2, “Dietary product devoid of at least two non essential amino acids” (CANCER RESEARCH TECHNOLOGY LIMITED, priority 2016, dated 2025)
“Also recorded” adds a separate entry of the source.

Legend:
MDA-MB-231 cells = experiment: Cysteine starvation of MDA-MB-231 cells after AMD1 inhibitor pre-treatment; format: cell-based; details: 20 uM for 16 h before medium lacking cysteine
Description: FIG. 40. […] MDA-MB-231 cells were initially seeded in complete (DMEM) medium in 24-well plates. After 24 h, cells were treated with AMD1 inhibitor Sardomozide (20 uM) for 16 h or left untreated (Ctr). Cells were then washed with PBS and given medium lacking cysteine but containing all 19 other amino acids. Images (panel a) were captured using a light microscope, and cell counts (panel b) were performed using a CASY TT cell counter. Data are average of three wells. Error bars=STDEV.
(§1) Cells (4×10^4-1×10^5) were seeded in complete RPMI or DMEM medium in 24-well plates and allowed to adhere overnight. Cells were then washed with PBS and received assay medium supplemented with the stated amino acids/metabolites/drugs. Assay medium was formulated based on RPMI-1640 medium but lacking amino acids, which were added individually depending on the assay. Assay medium was also supplemented with additional vitamin B6 (20 uM), a co-factor for cysteine synthesis. Cells were counted (using Casy TT cell counter, Innovatis, Roche Applied Science) at the stated time-points, using a “time=0” plate to calculate relative cell number from time of medium change.

[1] = tested on: Colorectal and breast cancer cell lines; experiment: Rescue from cysteine starvation by homocysteine supplementation; format: cell-based; details: homocysteine 0.2 mM & 0.8 mM, three days
Description: FIG. 39. […] Colorectal and breast cancer cell lines were grown in 24-well plates. Basal medium was formulated (based on RPMI medium) lacking cysteine but containing all 19 other essential and non-essential amino acids. This basal medium was supplemented with the stated components; cysteine 0.4 mM (+Cys), homocysteine 0.2 mM & 0.8 mM (HC) and grown for three days. Data are average of three wells. Error bars=STDEV.
as §1

Structure (SMILES) | protection from cell death in cysteine starvation (MDA-MB-231 cells) | rescue from cysteine starvation [1]
N=C(N)N/N=C1\CCc2c(C(=N)N)cccc21 [Sardomozide] | protects cells from acute sensitivity (i.e. cell death) to cysteine starvation | 
N[C@@H](CCS)C(=O)O [homocysteine] |  | rescued from cysteine starvation; also recorded: significant rescue from cysteine starvation
